Consider nine compounds from patent publication US12522601B2, “1,3,4-oxadiazole derivative compounds as histone deacetylase 6 inhibitor, and the pharmaceutical composition comprising the same” (CHONG KUN DANG PHARMACEUTICAL CORP., priority 2020, dated 2026).

The target of one experiment is T1, human recombinant HDAC1 (Homo sapiens, UniProt Q13547).
T1 construct: purchased Enzo Life Sciences, Inc. BML-SE456
Nature of the experiment: In vitro HDAC enzyme activity inhibition assay, HDAC1 (HDAC Fluorimetric Drug Discovery Kit). In kind it is biochemical. The settings on record: human recombinant HDAC1, Fluor de Lys-SIRT1 substrate 10 μM, 30° C. for 60 minutes. In a few lines: (§1)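 Fluorimetric deacetylase kit; 0.3 μg human recombinant enzyme with 10 μM Fluor de Lys-SIRT1 substrate, 60 min at 30° C, then developer 30 min. Fluorescence read at Ex 360/Em 460; IC50 from 5-fold compound dilutions. HDAC1 and HDAC6 run by the same protocol.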

The target of a further experiment is T2, human recombinant HDAC6 (Homo sapiens, UniProt Q9UBN7).
T2 construct: purchased Calbiochem Inc. 382180
T2 sequence (Q9UBN7 1-1215): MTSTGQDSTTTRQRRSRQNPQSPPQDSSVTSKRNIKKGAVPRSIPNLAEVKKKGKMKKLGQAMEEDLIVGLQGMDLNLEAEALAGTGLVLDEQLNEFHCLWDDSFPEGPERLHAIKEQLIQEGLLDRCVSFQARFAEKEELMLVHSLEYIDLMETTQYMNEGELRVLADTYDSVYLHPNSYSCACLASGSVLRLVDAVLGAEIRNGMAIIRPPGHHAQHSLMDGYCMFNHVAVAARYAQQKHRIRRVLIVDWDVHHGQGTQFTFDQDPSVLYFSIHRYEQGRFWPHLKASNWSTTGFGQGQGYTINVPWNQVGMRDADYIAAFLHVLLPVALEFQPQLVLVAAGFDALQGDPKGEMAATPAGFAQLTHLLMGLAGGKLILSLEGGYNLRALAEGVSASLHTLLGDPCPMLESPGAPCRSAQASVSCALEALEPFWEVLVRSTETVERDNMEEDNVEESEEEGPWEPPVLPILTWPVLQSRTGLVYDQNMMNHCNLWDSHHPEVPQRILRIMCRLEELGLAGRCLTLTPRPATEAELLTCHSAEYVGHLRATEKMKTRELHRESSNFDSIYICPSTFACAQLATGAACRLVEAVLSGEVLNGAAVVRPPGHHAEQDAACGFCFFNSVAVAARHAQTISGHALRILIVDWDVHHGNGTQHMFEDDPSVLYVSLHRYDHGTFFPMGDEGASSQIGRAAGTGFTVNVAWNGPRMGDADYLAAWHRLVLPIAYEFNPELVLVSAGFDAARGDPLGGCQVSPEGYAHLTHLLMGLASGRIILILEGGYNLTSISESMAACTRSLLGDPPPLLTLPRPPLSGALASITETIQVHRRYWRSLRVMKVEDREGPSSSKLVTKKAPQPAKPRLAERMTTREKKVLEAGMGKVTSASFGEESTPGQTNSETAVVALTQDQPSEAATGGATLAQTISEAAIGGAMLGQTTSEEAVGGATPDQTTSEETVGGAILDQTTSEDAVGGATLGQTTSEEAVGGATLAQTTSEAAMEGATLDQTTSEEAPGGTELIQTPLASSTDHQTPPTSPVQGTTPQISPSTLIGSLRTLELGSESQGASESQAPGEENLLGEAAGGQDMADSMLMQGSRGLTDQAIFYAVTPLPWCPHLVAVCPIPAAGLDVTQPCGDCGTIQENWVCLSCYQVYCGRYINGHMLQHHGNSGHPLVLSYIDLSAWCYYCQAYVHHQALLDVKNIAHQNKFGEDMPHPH
As to the kind of experiment: In vitro HDAC enzyme activity inhibition assay, HDAC6 (HDAC Fluorimetric Drug Discovery Kit). The settings on record: for HDAC6 Selectivity (fold): HDAC6 versus HDAC1; for IC50: human recombinant HDAC6, same protocol as the HDAC1 test. In kind it is biochemical. The method in brief:
as §1

Some results are limits rather than exact numbers.

T1 sequence (Q13547 whole entry): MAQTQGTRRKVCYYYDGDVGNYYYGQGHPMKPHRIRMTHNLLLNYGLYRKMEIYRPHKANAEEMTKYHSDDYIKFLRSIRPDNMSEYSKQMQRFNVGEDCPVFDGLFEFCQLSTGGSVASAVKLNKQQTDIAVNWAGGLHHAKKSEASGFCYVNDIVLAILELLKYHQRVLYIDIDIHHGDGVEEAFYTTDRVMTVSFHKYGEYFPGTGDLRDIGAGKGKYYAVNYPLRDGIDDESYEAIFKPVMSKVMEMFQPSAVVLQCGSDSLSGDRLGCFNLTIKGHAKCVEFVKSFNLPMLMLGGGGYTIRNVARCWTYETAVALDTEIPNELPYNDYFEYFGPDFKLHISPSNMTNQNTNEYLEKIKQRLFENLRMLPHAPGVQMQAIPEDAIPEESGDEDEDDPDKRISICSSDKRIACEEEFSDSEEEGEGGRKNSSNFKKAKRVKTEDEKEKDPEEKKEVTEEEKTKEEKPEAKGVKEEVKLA

For orientation: IC50 means the concentration at which inhibition is half-maximal. Regarding `O=C(C1CCN(c2ccccn2)CC1)N(Cc1cn2ccc(-c3nnc(C(F)F)o3)cc2n1)c1cccc(F)c1` [Compound 4156, N-((7-(5-(difluoromethyl)-1,3,4-oxadiazol-2-yl)imidazo[1,2-a]pyridin-2-yl)methyl)-N-(3-fluorophenyl)-1-(pyridin-2-yl)piperidine-4-carboxamide], the 50% inhibitory concentration (IC50) at human recombinant HDAC1 was above 50000 nM. Also, on human recombinant HDAC6, the “HDAC6 Selectivity (fold)” value is listed as 359 fold and the IC50 was determined as 139 nM.

Consider `CS(=O)(=O)c1ccc(NCc2cn3ccc(-c4nnc(C(F)F)o4)cc3n2)cc1` [Compound 3674, N-((7-(5-(difluoromethyl)-1,3,4-oxadiazol-2-yl)imidazo[1,2-a]pyridin-2-yl)methyl)-4-(methylsulfonyl)aniline], for which, at human recombinant HDAC1, the IC50 was above 50000 nM. Further, at human recombinant HDAC6, the “HDAC6 Selectivity (fold)” value was found to be 128 fold and the IC50 amounted to 391 nM.

For `O=C(N1CCN(C2CCOCC2)CC1)N(Cc1cn2ccc(-c3nnc(C(F)F)o3)cc2n1)c1cccc(F)c1` [Compound 4090, N-((7-(5-(difluoromethyl)-1,3,4-oxadiazol-2-yl)imidazo[1,2-a]pyridin-2-yl)methyl)-N-(3-fluorophenyl)-4-(tetrahydro-2H-pyran-4-yl)piperazine-1-carboxamide], the IC50 on human recombinant HDAC1 was above 50000 nM; on human recombinant HDAC6 it was 232 nM. Besides, the “HDAC6 Selectivity (fold)” value at human recombinant HDAC6 was determined as 216 fold.

Turning to `O=C(C1CN(c2ncccn2)C1)N(Cc1cn2ccc(-c3nnc(C(F)F)o3)cc2n1)c1cccc(F)c1` [Compound 4207, N-((7-(5-(difluoromethyl)-1,3,4-oxadiazol-2-yl)imidazo[1,2-a]pyridin-2-yl)methyl)-N-(3-fluorophenyl)-1-(pyrimidin-2-yl) azetidine-3-carboxamide], the IC50 at human recombinant HDAC1 is above 50000 nM; at human recombinant HDAC6, 168 nM. At human recombinant HDAC6, the “HDAC6 Selectivity (fold)” value is reported as 298 fold.

For the compound `O=C(C1CN(C2CCC(F)(F)CC2)C1)N(Cc1cn2ccc(-c3nnc(C(F)F)o3)cc2n1)c1cccc(F)c1` [Compound 4196, 1-(4,4-Difluorocyclohexyl)-N-((7-(5-(difluoromethyl)-1,3,4-oxadiazol-2-yl)imidazo[1,2-a]pyridin-2-yl)methyl)-N-(3-fluorophenyl) azetidine-3-carboxamide], the IC50 on human recombinant HDAC1 is above 50000 nM. Also, on human recombinant HDAC6, the “HDAC6 Selectivity (fold)” value is reported as 276 fold and the IC50 came to 181 nM.

Regarding `Fc1cccc(OCc2cn3ccc(-c4nnc(C(F)F)o4)cc3n2)c1` [Compound 3722, 2-(difluoromethyl)-5-(2-((3-fluorophenoxy)methyl)imidazo[1,2-a]pyridin-7-yl)-1,3,4-oxadiazole], the figures for the IC50 at human recombinant HDAC1 and at human recombinant HDAC6 were above 50000 nM and 287 nM, respectively. Further, on human recombinant HDAC6, the “HDAC6 Selectivity (fold)” value amounted to 174 fold.

Turning to `CC(C)N1CCN(C(=O)N(Cc2cn3ccc(-c4nnc(C(F)F)o4)cc3n2)c2cccc(F)c2)CC1` [Compound 4085, N-((7-(5-(difluoromethyl)-1,3,4-oxadiazol-2-yl)imidazo[1,2-a]pyridin-2-yl)methyl)-N-(3-fluorophenyl)-4-isopropylpiperazine-1-carboxamide], the IC50 at human recombinant HDAC1 was above 50000 nM; at human recombinant HDAC6, 214 nM. Besides, the “HDAC6 Selectivity (fold)” value on human recombinant HDAC6 is on record as 233 fold.

For the compound `O=C(N1CCN(C2CCC(F)(F)CC2)CC1)N(Cc1cn2ccc(-c3nnc(C(F)F)o3)cc2n1)c1cccc(F)c1` [Compound 4091, 4-(4,4-difluorocyclohexyl)-N-((7-(5-(difluoromethyl)-1,3,4-oxadiazol-2-yl)imidazo[1,2-a]pyridin-2-yl)methyl)-N-(3-fluorophenyl)piperazine-1-carboxamide], the values for the IC50 at human recombinant HDAC1 and at human recombinant HDAC6 were above 50000 nM and 257 nM, respectively. Besides, the “HDAC6 Selectivity (fold)” value at human recombinant HDAC6 was 194 fold.

With `O=C(CO)N1CCC(C(=O)N(Cc2cn3ccc(-c4nnc(C(F)F)o4)cc3n2)c2ccccc2)CC1` [Compound 4124, N-((7-(5-(difluoromethyl)-1,3,4-oxadiazol-2-yl)imidazo[1,2-a]pyridin-2-yl)methyl)-1-(2-hydroxyacetyl)-N-phenylpiperidine-4-carboxamide], the IC50 on human recombinant HDAC1 is above 50000 nM. Further, on human recombinant HDAC6, the “HDAC6 Selectivity (fold)” value worked out at 147 fold and the 50% inhibitory concentration (IC50) is 341 nM.
